Active and inactive are the calls of the source. No cut-off for these calls is given here.
Assays:
Type in all cases: functional
Rattus norvegicus [1] = test: Effect on GSH level in Wistar Rattus norvegicus (rat) liver measured per mg of protein at 50 mg/kg, po after 10 days (reference value: 1.84 +/- 0.092 mg)
Rattus norvegicus [2] = test: Anti-inflammatory activity in Wistar Rattus norvegicus (rat) assessed as inhibition of carrageenan-induced paw edema at 50 mg/kg, po administered 30 min prior to carrageenan challenge measured at 120 min relative to untreated control
Rattus norvegicus [3] = test: Effect on TBARS level in Wistar Rattus norvegicus (rat) serum at 100 mg/kg, po qd after 10 days (reference value: 0.82 +/- 0.073 nmol/ml)
Rattus norvegicus [4] = test: Effect on gamma-glutamyl transferase level in Wistar Rattus norvegicus (rat) serum at 50 mg/kg, po qd after 10 days (reference value: 0.57 +/- 0.04 U/I)
Rattus norvegicus [5] = test: Effect on LDH level in Wistar Rattus norvegicus (rat) serum at 50 mg/kg, po qd after 10 days (reference value: 249.89 +/- 13.26 U/I)
Rattus norvegicus [6] = test: Effect on glutathione reductase level in Wistar Rattus norvegicus (rat) liver measured NADPH oxidized per min per mg of protein at 50 mg/kg, po after 10 days (reference value: 4.19 +/ 0.42 nmol)
Rattus norvegicus [7] = test: Anti-inflammatory activity in Wistar Rattus norvegicus (rat) assessed as inhibition of carrageenan-induced paw edema at 100 mg/kg, po administered 30 min prior to carrageenan challenge measured at 60 min relative to untreated control
Rattus norvegicus [8] = test: Anti-inflammatory activity in Wistar Rattus norvegicus (rat) assessed as inhibition of carrageenan-induced paw edema at 50 mg/kg, po administered 30 min prior to carrageenan challenge measured at 90 min relative to untreated control
Rattus norvegicus [9] = test: Antipyretic activity in Wistar Rattus norvegicus (rat) assessed as decrease in Brewer's yeast solution-induced hyperthermia at 100 mg/kg, po measured after 2 hr (reference value: 37 +/- 1.7 degC)
[10] = Antioxidant activity assessed as Fe2+ chelating activity at 1.5 mg/ml after 60 min by spectrophotometric analysis
Rattus norvegicus [11] = test: Effect on GST level in Wistar Rattus norvegicus (rat) liver measured CDNB conjugated per min per mg of protein at 50 mg/kg, po after 10 days (reference value: 0.86 +/- 0.08 mmol)
Rattus norvegicus [12] = test: Effect on TBARS level in Wistar Rattus norvegicus (rat) serum at 50 mg/kg, po qd after 10 days (reference value: 0.82 +/- 0.073 nmol/ml)
Rattus norvegicus [13] = test: Anti-inflammatory activity in Wistar Rattus norvegicus (rat) assessed as inhibition of carrageenan-induced paw edema at 100 mg/kg, po administered 30 min prior to carrageenan challenge measured at 120 min relative to untreated control
Rattus norvegicus [14] = test: Antipyretic activity in Wistar Rattus norvegicus (rat) assessed as decrease in Brewer's yeast solution-induced hyperthermia at 150 mg/kg, po measured after 1 hr (reference value: 37 +/- 3.55 degC)
Rattus norvegicus [15] = test: Anti-inflammatory activity in Wistar Rattus norvegicus (rat) assessed as inhibition of carrageenan-induced paw edema at 150 mg/kg, po administered 30 min prior to carrageenan challenge measured at 180 min relative to untreated control
Rattus norvegicus [16] = test: Effect on gamma-glutamyl transferase level in Wistar Rattus norvegicus (rat) serum at 100 mg/kg, po qd after 10 days (reference value: 0.57 +/- 0.04 U/I)
Rattus norvegicus [17] = test: Effect on SGOT level in Wistar Rattus norvegicus (rat) at 50 mg/kg, po qd after 10 days (reference value: 145.50 +/- 13.86 U/I)
Rattus norvegicus [18] = test: Effect on glutathione peroxidase level in Wistar Rattus norvegicus (rat) liver measured GSH oxidized per min per mg of protein at 150 mg/kg, po after 10 days (reference value: 47.47 +/- 3.86 mmol)
Rattus norvegicus [19] = test: Effect on SGPT level in Wistar Rattus norvegicus (rat) at 100 mg/kg, po qd after 10 days (reference value: 38.77 +/- 4.25 U/I)
Rattus norvegicus [20] = test: Anti-inflammatory activity in Wistar Rattus norvegicus (rat) assessed as inhibition of carrageenan-induced paw edema at 150 mg/kg, po administered 30 min prior to carrageenan challenge measured at 60 min relative to untreated control
Rattus norvegicus [21] = test: Antipyretic activity in Wistar Rattus norvegicus (rat) assessed as decrease in Brewer's yeast solution-induced hyperthermia at 100 mg/kg, po measured after 1 hr (reference value: 37 +/- 3.55 degC)
[22] = test system: Radical scavenging activity; test: Antioxidant activity assessed as DPPH free radical scavenging activity at 6 mg/ml after 5 to 60 min by spectrophotometric analysis
Rattus norvegicus [23] = test: Effect on LDH level in Wistar Rattus norvegicus (rat) serum at 100 mg/kg, po qd after 10 days (reference value: 249.89 +/- 13.26 U/I)
Rattus norvegicus [24] = test: Anti-inflammatory activity in Wistar Rattus norvegicus (rat) assessed as inhibition of carrageenan-induced paw edema at 150 mg/kg, po administered 30 min prior to carrageenan challenge measured at 30 min post carrageenan challenge relative to untreated control
Rattus norvegicus [25] = test: Effect on GST level in Wistar Rattus norvegicus (rat) liver measured CDNB conjugated per min per mg of protein at 100 mg/kg, po after 10 days (reference value: 0.86 +/- 0.08 mmol)
[26] = Antioxidant activity assessed as reduction of Fe3+ to Fe2+ at 20 to 120 ug/ml after 30 min by spectrophotometric analysis
Rattus norvegicus [27] = test: Anti-inflammatory activity in Wistar Rattus norvegicus (rat) assessed as inhibition of carrageenan-induced paw edema at 150 mg/kg, po administered 30 min prior to carrageenan challenge measured at 120 min relative to untreated control
Rattus norvegicus [28] = test: Effect on SGPT level in Wistar Rattus norvegicus (rat) at 50 mg/kg, po qd after 10 days (reference value: 38.77 +/- 4.25 U/I)
Rattus norvegicus [29] = test: Effect on glutathione reductase level in Wistar Rattus norvegicus (rat) liver measured NADPH oxidized per min per mg of protein at 150 mg/kg, po after 10 days (reference value: 4.19 +/ 0.42 nmol)
Rattus norvegicus [30] = test: Effect on ALP level in Wistar Rattus norvegicus (rat) serum at 100 mg/kg, po qd after 10 days (reference value: 39.5 +/- 3.86 U/I)
Rattus norvegicus [31] = test: Effect on GSH level in Wistar Rattus norvegicus (rat) liver measured per mg of protein at 150 mg/kg, po after 10 days (reference value: 1.84 +/- 0.092 mg)
Rattus norvegicus [32] = test: Antipyretic activity in Wistar Rattus norvegicus (rat) assessed as decrease in Brewer's yeast solution-induced hyperthermia at 100 mg/kg, po measured after 3 hr (reference value: 36.8 +/- 1.9 degC)
Rattus norvegicus [33] = test: Effect on glutathione peroxidase level in Wistar Rattus norvegicus (rat) liver measured GSH oxidized per min per mg of protein at 50 mg/kg, po after 10 days (reference value: 47.47 +/- 3.86 mmol)

O=c1c2ccccc2nc2n1NC(c1ccc(O)c(O)c1)C2 (stereo unspecified)
Activity (Rattus norvegicus [1]): 1.8 mg | inhibition in vivo at 50 mg/kg (Rattus norvegicus [2]): 53.7% | Activity (Rattus norvegicus [3]): 0.83 nmol/mL | Activity (Rattus norvegicus [4]): 0.55 U/L | Activity (Rattus norvegicus [5]): 246.29 U/L | Activity (Rattus norvegicus [6]): 4.33 nmol | inhibition in vivo at 100 mg/kg (Rattus norvegicus [7]): 38% | inhibition in vivo at 50 mg/kg (Rattus norvegicus [8]): 39.5% | T (Rattus norvegicus [9]): 36 °C | Activity [10]: 22% | Activity (Rattus norvegicus [11]): 0.97 mmol | Activity (Rattus norvegicus [12]): 0.82 nmol/mL | inhibition in vivo at 100 mg/kg (Rattus norvegicus [13]): 54.7% | T (Rattus norvegicus [14]): 37.5 °C | inhibition in vivo at 150 mg/kg (Rattus norvegicus [15]): 54.6% | Activity (Rattus norvegicus [16]): 0.51 U/L | Activity (Rattus norvegicus [17]): 139.53 U/L | Activity (Rattus norvegicus [18]): 53.45 mmol | Activity (Rattus norvegicus [19]): 36.15 U/L | inhibition in vivo at 150 mg/kg (Rattus norvegicus [20]): 34.2% | T (Rattus norvegicus [21]): 37.8 °C | Activity [22]: Active | Activity (Rattus norvegicus [23]): 243.46 U/L | inhibition in vivo at 150 mg/kg (Rattus norvegicus [24]): 8.48% | Activity (Rattus norvegicus [25]): 1.15 mmol | Activity [26]: Active | inhibition in vivo at 150 mg/kg (Rattus norvegicus [27]): 58.2% | Activity (Rattus norvegicus [28]): 41.97 U/L | Activity (Rattus norvegicus [29]): 5.14 nmol | Activity (Rattus norvegicus [30]): 35.64 U/L | Activity (Rattus norvegicus [31]): 2.39 mg | T (Rattus norvegicus [32]): 36.8 °C | Activity (Rattus norvegicus [33]): 49.25 mmol

COC(=O)c1ccccc1NC(=O)/C=C/c1ccc(O)c(O)c1
Activity (Rattus norvegicus [1]): 1.94 mg | inhibition in vivo at 50 mg/kg (Rattus norvegicus [2]): 63.8% | Activity (Rattus norvegicus [3]): 0.75 nmol/mL | Activity (Rattus norvegicus [4]): 0.53 U/L | Activity (Rattus norvegicus [5]): 240.38 U/L | Activity (Rattus norvegicus [6]): 4.85 nmol | inhibition in vivo at 100 mg/kg (Rattus norvegicus [7]): 45.4% | inhibition in vivo at 50 mg/kg (Rattus norvegicus [8]): 53.1% | T (Rattus norvegicus [9]): 36.7 °C | Activity [10]: 30% | Activity (Rattus norvegicus [11]): 1.3 mmol | Activity (Rattus norvegicus [12]): 0.77 nmol/mL | inhibition in vivo at 100 mg/kg (Rattus norvegicus [13]): 64.3% | T (Rattus norvegicus [14]): 36.9 °C | inhibition in vivo at 150 mg/kg (Rattus norvegicus [15]): 78.9% | Activity (Rattus norvegicus [16]): 0.51 U/L | Activity (Rattus norvegicus [17]): 135.62 U/L | Activity (Rattus norvegicus [18]): 57.89 mmol | Activity (Rattus norvegicus [19]): 43.21 U/L | inhibition in vivo at 150 mg/kg (Rattus norvegicus [20]): 52.7% | T (Rattus norvegicus [21]): 37.2 °C | Activity [22]: Active | Activity (Rattus norvegicus [23]): 239.19 U/L | inhibition in vivo at 150 mg/kg (Rattus norvegicus [24]): 37.9% | Activity (Rattus norvegicus [25]): 1.54 mmol | Activity [26]: Active | inhibition in vivo at 150 mg/kg (Rattus norvegicus [27]): 76% | Activity (Rattus norvegicus [28]): 42.47 U/L | Activity (Rattus norvegicus [29]): 6.36 nmol | Activity (Rattus norvegicus [30]): 35.64 U/L | Activity (Rattus norvegicus [31]): 2.95 mg | T (Rattus norvegicus [32]): 36.8 °C | Activity (Rattus norvegicus [33]): 49.11 mmol
